Experimental data published in patent publication US5654139A (The United States of America as represented by the …, priority 1994, dated 1997).

Assays:
human 5-HT2Cser receptor = molecular target: T1, human 5-HT2Cser receptor (Homo sapiens, UniProt P28335); test: Two-electrode voltage-clamp recording of 5-HT-activated currents in Xenopus oocytes expressing 5-HT2Cser; assay type: cell-based
T1 construct: consisting of the entire coding region of the 5-HT2C receptor; expressed in transfected cells; host or cells: Xenopus laevis oocytes injected with cRNA
T1 sequence (P28335 33-458): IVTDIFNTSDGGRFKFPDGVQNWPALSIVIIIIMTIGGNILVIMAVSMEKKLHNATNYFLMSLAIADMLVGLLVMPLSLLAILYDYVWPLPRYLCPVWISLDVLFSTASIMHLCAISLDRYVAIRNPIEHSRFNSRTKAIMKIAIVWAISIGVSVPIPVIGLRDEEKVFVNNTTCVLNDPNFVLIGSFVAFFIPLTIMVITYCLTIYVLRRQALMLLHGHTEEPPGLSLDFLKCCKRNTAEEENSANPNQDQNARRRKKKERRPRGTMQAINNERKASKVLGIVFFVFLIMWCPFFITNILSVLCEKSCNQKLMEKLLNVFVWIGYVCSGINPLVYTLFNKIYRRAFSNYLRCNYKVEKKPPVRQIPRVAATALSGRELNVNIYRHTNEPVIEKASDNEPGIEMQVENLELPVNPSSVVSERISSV

human 5-HT2Ccys receptor = molecular target: T2, human 5-HT2Ccys receptor (Homo sapiens, UniProt P28335); test: Two-electrode voltage-clamp recording of 5-HT-activated currents in Xenopus oocytes expressing 5-HT2Ccys; assay type: cell-based
T2 construct: consisting of the entire coding region of the 5-HT2C receptor; expressed in transfected cells; host or cells: Xenopus laevis oocytes injected with cRNA
T2 sequence (P28335 33-458): T1 sequence (P28335 33-458)

[1] = 1 μM PPRZ, voltage-clamp at -70 mV

## Cl.c1ccc2c(N3CCNCC3)cccc2c1 [PPRZ, 1-(1-naphthyl) piperazine HCL]
Human 5-HT2Cser receptor; [1]
  effect on currents activated by 10 nM 5-HT: suppressed
Human 5-HT2Cser receptor; after a 20 min wash
  reversibility of the effect of PPRZ on 5-HT-activated response: reversible
Human 5-HT2Ccys receptor; [1]
  effect on currents activated by 10 nM 5-HT: suppressed
Human 5-HT2Ccys receptor; after a 20 min wash
  reversibility of the effect of PPRZ on 5-HT-activated response: reversible
